As usually defined, the Ki is a measure of affinity in units of concentration, obtained from inhibition or displacement.

Like-named read-outs stand apart in the source and are kept apart here.

Experimental findings from patent US6281214A, “Biphenyl derivatives” (Eisai Co., Ltd, priority 1994, dated 2001) are described below.

What all share (design): species or system SD rats
One test has as its target T1, serotonin S2 receptor (Rattus norvegicus, UniProt P14842).
T1 construct: The receptor fraction prepared from the cortex was molten and suspended; from tissue; host or cells: cerebral cortex of SD rats (membrane fraction)
As to the kind of experiment: serotonin S2 receptor binding test ([3H] Ketanserin Binding Test). As to conditions: 1 nM [3H] Ketanserin, rat cortex, 37° C., 15 minutes. The procedure:
(§1) The compounds of the present invention were subjected to each of serotonin S2 receptor binding test, dopamine D2 receptor binding test and adrenergic α1 receptor binding test.
(§2) The following reagents were used in this test.
(§3) These reagents and samples were each dissolved in 10% ethanol before use. Among them, water-insoluble compounds were each dissolved in ethanol and the obtained solution was diluted with distilled water to an ethanol concentration of 10%. Further, Methylsergide maleate was used in a state dissolved in distilled water.
(§4) SD rats aged 6 to 8 weeks were used.
(§5) SD rats were each slaughtered with a guillotine to extirpate its cerebrum. The cortex and corpus striatum were separated from the cerebrum. The former was used in serotonin S2 receptor binding test and adrenergic α1, receptor binding test, while the latter was used in dopamine D2 receptor binding test.
(§6) The cortex was homogenized in a 0.32 M sucrose solution in an amount ten times the wet weight of the cortex by the use of a teflon glass homogenizer and the resulting mixture was centrifuged at 10,000×G for 20 minutes. The obtained sediment was suspended in 50 mM Tris hydrochloride (pH 7.4) in an amount ten times the initial wet weight of the cortex by the use of a histocothrom, and the obtained suspension was centrifuged at 10,000×G for 20 minutes. This operation was repeated twice. The obtained sediment was suspended in 50 mM Tris hydrochloride (pH 7.4) in an amount 20 times the initial wet weight of the cortex by the use of a histocothrom. The suspension thus prepared was used as a receptor fraction. This receptor fraction was stored at -80° C. until use.
4. [^3 ] Ketanserin Binding Test
The receptor fraction prepared from the cortex was molten and suspended by the use of a histocothrom. The resulting suspension was incubated together with 1 nM-[^3 H] Ketanserin at 37° C. for 15 minutes. The resulting reaction system was filtered through a Whatman GF/B glass filter with an MR-30R type cell harvester mfd. by Blandel. The resulting filter was washed twice with 5 ml of 50 mM Tris hydrochloride (ph 7.4) cooled with ice and the radioactivity of the Ketanserin bound the receptor was determined by the use of a liquid scintillation counter with 5 ml of ACS II. The binding detected in the presence of […] of Methylsergide was regarded as nonspecific binding.
(§7) Each IC50 value was calculated by the probit method and each Ki value was determined by the following formula: [formula]
(§8) In the above formula, C represents the concentration of radioligand, and Kd represents the affinity of radioligand for the receptor as determined by the Scatchard analysis.

Another test has as its target T2, dopamine D2 receptor (Rattus norvegicus, UniProt P61169).
T2 construct: the receptor fraction prepared from the corpus striatum was molten and suspended; from tissue; host or cells: corpus striatum of SD rats (membrane fraction)
As to the kind of experiment: dopamine D2 receptor binding test ([3H] Spiperone Binding Test). The following applies: 1 nM [3H] Spiperone, rat corpus striatum, room temperature, 60 minutes. The procedure:
as §1, §2, §3, §4, §5
On the other hand, the corpus striatum was homogenized in a 0.32 M sucrose solution in an amount ten times the wet weight of the corpus striatum by the use of a teflon glass homogenizer and the obtained mixture was centrifuged at 1,000×G for 20 minutes. The obtained supernatant was centrifuged at 10,000×G for 20 minutes. The obtained sediments were suspended together in 50 mM Tris hydrochloride (pH 7.4) in an amount ten times the initial wet weight of the corpus striatum by the use of a histocothrom, and the obtained suspension was centrifuged at 10,000×G for 20 minutes. This operation was repeated thrice. The resulting sediment was suspended in 50 mM Krebs-Tris (pH 7.4) in an amount 100 times the initial wet weight of the corpus striatum by the use of a histocothrom. The obtained suspension was used as a receptor fraction. This receptor fraction was stored at -80° C. until use.
as §7, §8
5. [^3 H] Spiperone Binding Test
This test was conducted in the same manner as that of the binding test of [^3 H] Ketanserin except that the receptor fraction prepared from the corpus striatum was molten and suspended with a histocothrom, and the obtained suspension was incubated together with 1 nM-[^3 H], Spiperone at room temperature for 60 minutes and that the binding detected in the presence of 10 μl of Spiperone was regarded as nonspecific binding.

The target of a further test is adrenergic α1 receptor. As to the kind of experiment: adrenergic α1 receptor binding test ([3H] Prazosin Binding Test). The following applies: 1 nM [3H] Prazosin, rat cortex, room temperature, 60 minutes. The procedure:
as §1, §2, §3, §4, §5, §6, §7, §8
6. [^3 H] Prazosin Binding Test
This test was conducted in the same manner as that of the binding test of [^3 H] Ketanserin except that the receptor fraction prepared from the cortex was molten and suspended with a histocothrom, and the obtained suspension was incubated together with 1 nM-[^3 H] Prazosin at room temperature for 60 minutes and that the binding detected in the presence of 10 μl of Phentolamine was regarded as nonspecific binding.

Setting [1] is: read-out: Ki value, dopamine D2 receptor.

T2 sequence (P61169 whole entry): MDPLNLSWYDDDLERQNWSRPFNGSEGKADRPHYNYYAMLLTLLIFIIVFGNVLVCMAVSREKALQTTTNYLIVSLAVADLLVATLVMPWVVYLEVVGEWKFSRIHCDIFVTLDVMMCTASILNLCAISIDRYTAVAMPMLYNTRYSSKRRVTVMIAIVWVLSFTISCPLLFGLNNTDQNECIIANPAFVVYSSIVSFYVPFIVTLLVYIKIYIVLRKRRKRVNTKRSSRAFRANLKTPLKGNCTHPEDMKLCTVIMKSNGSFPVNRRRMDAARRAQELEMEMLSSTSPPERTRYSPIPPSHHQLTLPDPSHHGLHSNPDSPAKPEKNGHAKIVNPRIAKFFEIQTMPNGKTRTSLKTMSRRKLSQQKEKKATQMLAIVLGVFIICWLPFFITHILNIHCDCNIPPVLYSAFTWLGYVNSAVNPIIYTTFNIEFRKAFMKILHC
T1 sequence (P14842 whole entry): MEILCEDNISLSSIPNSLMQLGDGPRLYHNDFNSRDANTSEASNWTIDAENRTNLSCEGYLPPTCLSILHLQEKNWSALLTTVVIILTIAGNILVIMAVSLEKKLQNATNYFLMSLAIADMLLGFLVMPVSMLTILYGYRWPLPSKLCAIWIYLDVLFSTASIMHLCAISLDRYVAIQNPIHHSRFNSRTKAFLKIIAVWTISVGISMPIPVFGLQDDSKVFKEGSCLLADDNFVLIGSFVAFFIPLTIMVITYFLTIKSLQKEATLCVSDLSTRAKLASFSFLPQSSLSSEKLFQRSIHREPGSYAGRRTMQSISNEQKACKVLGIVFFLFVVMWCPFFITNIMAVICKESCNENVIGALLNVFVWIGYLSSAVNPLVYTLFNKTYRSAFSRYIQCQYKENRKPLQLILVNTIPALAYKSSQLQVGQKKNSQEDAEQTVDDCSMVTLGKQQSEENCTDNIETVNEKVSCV

Take `CCN1CCN(c2cc(-c3ccccc3C)c(Cl)c(S(=O)(=O)N3CCCC3)c2)CC1` [Example 141]: the Ki at serotonin S2 receptor was 92.7 nM; on dopamine D2 receptor (setting [1]), 24.9 nM; on adrenergic α1 receptor, > 1000 nM.
The like results for `CC[C@H](F)c1cc(N2CCN(CC)CC2)cc(-c2ccc(F)cc2C)c1Cl` [Example 211, 1-Ethyl-4-{3-[2-(4-fluorotolyl)]-4-chloro-5-[1-(S)-fluoropropnyl]}phenylpiperazine] were, in that order, 8.81 nM, 4.14 nM and 1020 nM.
As for `CCCc1cc(N2CCN(CCF)CC2)cc(-c2ccc(F)cc2)c1OC` [Example 72, 1-(2-Fluoroethyl)-4-[3-(4-fluorophenyl)-4-methoxy-5-propyl]phenylpiperazine], the Ki came to 108 nM on serotonin S2 receptor; 50.3 nM at dopamine D2 receptor (Ki value, dopamine D2 receptor); 270 nM at adrenergic α1 receptor.
As to `CCCNS(=O)(=O)c1cc(N2CCN(CC)CC2)cc(-c2ccccc2C)c1Cl` [Example 161, 1-Ethyl-4-[3-(2-tolyl)-4-chloro-5-propylaminosulfonyl]phenylpiperazine], the figures for the Ki on serotonin S2 receptor, at dopamine D2 receptor (setting [1]) and at adrenergic α1 receptor were 22.5 nM, 9.8 nM and 776 nM, respectively.
Taken in the same sequence, the figures for `CCN1CCN(c2cc(-c3ccccc3C)c(Cl)c(S(=O)(=O)N(C)C)c2)CC1` [Example 154, 1-Ethyl-4-[3-(2-tolyl)-4-chloro-5-dimethylaminosulfonyl]phenylpiperazine] were 153 nM, 2.59 nM and > 1000 nM.
Consider `CCCS(=O)(=O)c1cc(N2CCN(CC)CC2)cc(-c2ccccc2)c1Cl` [Example 191], for which the values for the Ki on serotonin S2 receptor, on dopamine D2 receptor (setting [1]) and on adrenergic α1 receptor were 3.76 nM, 1.65 nM and 21.2 nM, respectively.
Regarding `CCN1CCN(c2cc(C=O)c(OC)c(-c3ccccc3)c2)CC1` [Example 106, 1-Ethyl-4-(3-phenyl-4-methoxy-5-formyl)phenylpiperazine], the Ki at serotonin S2 receptor is 380 nM; on dopamine D2 receptor (Ki value, dopamine D2 receptor), 44 nM; on adrenergic α1 receptor, > 1000 nM.
With `CCN1CCN(c2cc(-c3ccccc3C)c(Cl)c(C(C)F)c2)CC1` (stereo not drawn) [Example 52], the Ki on serotonin S2 receptor is 21.6 nM; at dopamine D2 receptor (setting [1]), 0.99 nM; on adrenergic α1 receptor it was > 1000 nM.
`COc1c(C(=O)Cc2ccccc2)cc(N2CCNCC2)cc1-c1ccccc1` [Example 125, 1-(3-phenyl-4-methoxy-5-phenylacetyl)phenylpiperazine]: the values for the Ki on serotonin S2 receptor, on dopamine D2 receptor (setting [1]) and on adrenergic α1 receptor were 1.49 nM, 101 nM and > 1000 nM, respectively.
With `CC[C@@H](F)c1cc(N2CCN(C)CC2)cc(-c2ccccc2C)c1Cl` [Example 220, 1-Methyl-4-{3-(2-tolyl)-4-chloro-5-[1-(R)-fluoropropyl]}phenylpiperazine], the Ki on serotonin S2 receptor is 37.9 nM; on dopamine D2 receptor (setting [1]) it was 1.25 nM; on adrenergic α1 receptor it was 1680 nM.
As for `CCN1CCN(c2cc(-c3ccccc3)c(OC)c(S(=O)(=O)N(C)C)c2)CC1` [Example 134, 1-Ethyl-4-(3-phenyl-4-methoxy-5-dimemthylaminosulfonyl)phenylpiperazine], the Ki at serotonin S2 receptor is 30.3 nM; on dopamine D2 receptor (setting [1]), 59.7 nM; at adrenergic α1 receptor, > 1000 nM.
The like results for `CCCS(=O)(=O)Nc1cc(N2CCN(CC)CC2)cc(-c2ccccc2C)c1Cl` [Example 153, 1-Ethyl-4-[3-(2-tolyl)-4-chloro-5-propanesulfonylamino]phenylpiperazine] were, in that order, 4.19 nM, 1.53 nM and 68.7 nM.
Taken in the same sequence, the figures for `CCC(CC)c1cc(N2CCN(CC)CC2)cc(-c2ccccc2C)c1Cl` [Example 157, 1-Ethyl-4-[3-(2-tolyl)-4-chloro-5-(1-ethylpropyl)]phenylpiperazine] were 74.4 nM, 7.26 nM and > 1000 nM.
In the case of `CCN1CCN(c2cc(-c3ccccc3)c(OC)c(C3CCCO3)c2)CC1` (stereo not drawn) [Example 95, 1-Ethyl-4-[3-phenyl-4-methoxy-5-(2-tetrahydrofuranyl)]phenylpiperazine], the Ki on serotonin S2 receptor came to 40.9 nM; on dopamine D2 receptor (setting [1]), 104 nM; on adrenergic α1 receptor, 279 nM.
Turning to `CCN1CCN(c2cc(-c3ccccc3)c(OC)c(-c3ccccn3)c2)CC1` [Example 97, 1-Ethyl-4-[3-phenyl-4-methoxy-5-(2-pyridyl)]phenylpiperazine], the Ki on serotonin S2 receptor is 247 nM; on dopamine D2 receptor (setting [1]), > 1000 nM; at adrenergic α1 receptor, > 1000 nM.
`CCN1CCN(c2cc(CCC(C)=O)c(OC)c(-c3ccccc3)c2)CC1` [Example 114, 1-Ethyl-4-[3-phenyl-4-methoxy-5-(2-acetylethyl)]phenylpiperazine]: the Ki is 151 nM at serotonin S2 receptor, 165 nM on dopamine D2 receptor (setting [1]) and 569 nM on adrenergic α1 receptor.
Turning to `CCN1CCN(c2ccc(OC)c(-c3ccccc3)c2)CC1` [Example 57, 1-Ethyl-4-(3-phenyl-4-methoxy)phenylpiperazine], the Ki on serotonin S2 receptor, at dopamine D2 receptor (setting [1]) and at adrenergic α1 receptor was > 1000 nM each time.
As to `CCN1CCN(c2cc(CCl)c(OC)c(-c3ccccc3)c2)CC1` [Example 45, 1-Ethyl-4-(3-phenyl-4-methoxy-5-chloromelthy)phenylpiperazine], the Ki at serotonin S2 receptor came to 192 nM; on dopamine D2 receptor (Ki value, dopamine D2 receptor) it was 26.9 nM; on adrenergic α1 receptor, 183 nM.
As for `CCN1CCN(c2cc(-c3ccccc3)c(OC)c(N(C)S(=O)(=O)CC)c2)CC1` [Example 122, 1-Ethyl-4-[3-phenyl-4-methoxy-5-(N-ethanesulfonyl-N-methylamino)]phenylpiperazine], the Ki was determined as 123 nM on serotonin S2 receptor, 45.9 nM on dopamine D2 receptor (setting [1]) and 68.1 nM on adrenergic α1 receptor.
As for `CCCNc1cc(N2CCN(CC)CC2)cc(-c2ccccc2)c1OC` [Example 117, 1-Ethyl-4-(3-phenyl-4-methoxy-5-propylamino)phenylpiperazine], the Ki on serotonin S2 receptor worked out at 148 nM; at dopamine D2 receptor (setting [1]), 49.6 nM; at adrenergic α1 receptor, 334 nM.
As for `CCN1CCN(c2cc(-c3ccccc3)c(OC)c(C(F)Cc3ccccn3)c2)CC1` (stereo not drawn) [Example 99, 1-Ethyl-4-{3-phenyl-4-methoxy-5-[1-fluoro-2-(2-pyridyl)ethyl]}phenylpiperazine], the results for the Ki at serotonin S2 receptor, at dopamine D2 receptor (setting [1]) and on adrenergic α1 receptor were 170 nM, 2.93 nM and > 1000 nM, respectively.
`CCN1CCN(c2cc(-c3ccccc3)c(OC)c(C(F)Cc3ccccc3)c2)CC1` (stereo not drawn) [Example 96, 1-Ethyl-4-[3-phenyl-4-methoxy-5-(1-fluorophenethyl)]phenylpiperazine]: the Ki at serotonin S2 receptor is 35.3 nM; on dopamine D2 receptor (setting [1]) it was 1.33 nM; on adrenergic α1 receptor, > 1000 nM.
In the case of `COc1c(-c2ccccc2)cc(N2CCN(CCO)CC2)cc1-c1ccccc1` [Example 64], the Ki on serotonin S2 receptor worked out at 284 nM; at dopamine D2 receptor (setting [1]), 384 nM; at adrenergic α1 receptor it was 459 nM.
With `CCCCS(=O)(=O)c1cc(N2CCN(CC)CC2)cc(-c2ccccc2)c1OC` [Example 171, 1-Ethyl-4-(3-phenyl-4-methoxy-5-butanesulfonyl)phenylpiperazine], the values for the Ki at serotonin S2 receptor, at dopamine D2 receptor (setting [1]) and on adrenergic α1 receptor were 2.74 nM, 86.7 nM and > 1000 nM, respectively.
